Results from patent publication US10385031B2, “Substituted piperazines as selective HDAC1,2 inhibitors” (Regenacy Pharmaceuticals, LLC, priority 2016, dated 2019).

Experiments:
HDAC3 = HDAC3 (Homo sapiens (Human), UniProt O15379); test: HDAC enzyme assay HDAC3; format: biochemical
Protocol: Compounds for testing were diluted in DMSO to 50 fold the final concentration and a ten-point three-fold dilution series was made. The compounds were diluted in assay buffer (50 mM HEPES, pH 7.4, 100 mM KCl, 0.001% Tween-20, 0.05% BSA, 20 μM TCEP) to 6-fold their final concentration. The HDAC enzymes (purchased from BPS Biosciences) were diluted to 1.5-fold their final concentration in assay buffer. The tripeptide substrate and trypsin at 0.05 μM final concentration were diluted in assay buffer at 6-fold their final concentration. The final enzyme concentrations used in these assays were 3.3 ng/ml (HDAC1), 0.2 ng/ml (HDAC2) and 0.08 ng/ml (HDAC3). The final substrate concentrations used were 16 μM (HDAC1), 10 μM (HDAC2) and 17 μM (HDAC3). Five μl of compounds and 20 μl of enzyme were added to wells of a black, opaque 384 well plate in duplicate. Enzyme and compound were incubated together at room temperature for 10 minutes. Five μl of substrate was added to each well, the plate was shaken for 60 seconds and placed into a Victor 2 microtiter plate reader. The development of fluorescence was monitored for 60 min and the linear rate of the reaction was calculated. The IC50 was determined using Graph Pad Prism by a four parameter curve fit. In Table 4 below, letter designations are defined as follows: […]

HDAC1 = HDAC1 (Homo sapiens (Human), UniProt Q13547); test: HDAC enzyme assay HDAC1; format: biochemical
HDAC1, sequence (Q13547 whole entry): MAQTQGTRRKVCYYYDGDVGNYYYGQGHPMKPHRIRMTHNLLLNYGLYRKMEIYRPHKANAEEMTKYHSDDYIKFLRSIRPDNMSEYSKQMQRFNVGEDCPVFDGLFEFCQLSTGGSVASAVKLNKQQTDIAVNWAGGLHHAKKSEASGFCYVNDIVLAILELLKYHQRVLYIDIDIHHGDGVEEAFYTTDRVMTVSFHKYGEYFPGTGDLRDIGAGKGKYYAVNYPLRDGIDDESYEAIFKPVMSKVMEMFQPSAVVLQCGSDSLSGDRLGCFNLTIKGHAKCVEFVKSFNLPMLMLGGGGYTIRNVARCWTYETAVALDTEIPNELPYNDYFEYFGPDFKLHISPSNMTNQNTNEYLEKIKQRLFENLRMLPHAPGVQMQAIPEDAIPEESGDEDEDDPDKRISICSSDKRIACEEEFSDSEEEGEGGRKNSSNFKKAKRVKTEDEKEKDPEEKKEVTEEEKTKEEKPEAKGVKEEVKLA

HDAC2 = HDAC2 (Homo sapiens (Human), UniProt Q92769); test: HDAC enzyme assay HDAC2; format: biochemical
HDAC2, sequence (Q92769 whole entry): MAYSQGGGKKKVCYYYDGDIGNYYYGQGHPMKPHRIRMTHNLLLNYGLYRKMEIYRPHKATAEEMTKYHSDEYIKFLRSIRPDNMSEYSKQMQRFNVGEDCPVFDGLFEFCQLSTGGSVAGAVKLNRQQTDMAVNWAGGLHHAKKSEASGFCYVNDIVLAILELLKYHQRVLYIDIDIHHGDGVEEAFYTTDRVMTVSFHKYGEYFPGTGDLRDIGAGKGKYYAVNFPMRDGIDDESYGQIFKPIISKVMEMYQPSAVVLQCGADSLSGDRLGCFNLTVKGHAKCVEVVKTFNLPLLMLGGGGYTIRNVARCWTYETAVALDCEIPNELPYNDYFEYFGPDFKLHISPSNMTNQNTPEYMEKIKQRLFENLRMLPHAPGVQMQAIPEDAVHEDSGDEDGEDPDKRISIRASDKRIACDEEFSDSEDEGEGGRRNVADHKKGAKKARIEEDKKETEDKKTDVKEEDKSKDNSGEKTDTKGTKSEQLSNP
Protocol: Compounds for testing were diluted in DMSO to 50 fold the final concentration and a ten-point three-fold dilution series was made. The compounds were diluted in assay buffer (50 mM HEPES, pH 7.4, 100 mM KCl, 0.001% Tween-20, 0.05% BSA, 20 μM TCEP) to 6-fold their final concentration. The HDAC enzymes (purchased from BPS Biosciences) were diluted to 1.5-fold their final concentration in assay buffer. The tripeptide substrate and trypsin at 0.05 μM final concentration were diluted in assay buffer at 6-fold their final concentration. The final enzyme concentrations used in these assays were 3.3 ng/ml (HDAC1), 0.2 ng/ml (HDAC2) and 0.08 ng/ml (HDAC3). The final substrate concentrations used were 16 μM (HDAC1), 10 μM (HDAC2) and 17 μM (HDAC3).
Five μl of compounds and 20 μl of enzyme were added to wells of a black, opaque 384 well plate in duplicate. Enzyme and compound were incubated together at room temperature for 10 minutes. Five μl of substrate was added to each well, the plate was shaken for 60 seconds and placed into a Victor 2 microtiter plate reader. The development of fluorescence was monitored for 60 min and the linear rate of the reaction was calculated. The IC50 was determined using Graph Pad Prism by a four parameter curve fit.

[1] = Rat pharmacokinetics, cassette dosing (IV and PO); format: in vivo; details: rat, plasma, male SD rats; for bioavailability: 5 mg/kg, oral AUC to IV AUC, dose adjusted; for IV clearance: IV 1 mg/kg; for AUC / Cmax / half-life: PO 5 mg/kg; for half-life: read-out: PO T½ (converted)
Protocol: Male SD rats were fasted overnight. Compounds of the invention were dissolved in dimethyl acetamide at 10 times the final concentration, then Solutol HS 15 (BASF) was added to a final concentration of 10%. Finally 80% saline was added and vortexed to achieve a clear solution. For the IV dosing three animals were injected via the foot dorsal vein with 1 mg/kg compound. For the PO dosing 5 mg/kg of compound was delivered by oral gavage. Blood was collected via the tail vein into K2EDTA tubes at 5 minutes, 15 minutes, 30 minutes, 1 hour, 2 hours, 4 hours, 8 hours and 24 hours after dosing. The blood was centrifuged at 2000 g for 5 minutes at 4° C. to obtain plasma. The plasma was extracted with acetonitrile and the level of compound was analyzed by LC/MS/MS. The level of compound in plasma was calculated from a standard curve in rat plasma. The IV clearance (L/h/kg) and area under the curve (h*ng/mL) were calculated using WinNonLin software. The dose adjusted area under the curve for the IV and oral dosing were used to calculate the oral bioavailability.
Pharmacokinetic properties were assessed in a rat cassette dosing experiment. The IV clearance (IV Clr.) is in units of L/hr/kg. The oral maximum plasma concentration (PO Cmax) is in units of ng/ml. The oral plasma half-life (PO T½) is in units of hours. The oral area under the curve (PO AUC) is in units of hours*ng/ml. The fraction absorbed by the oral route (F %) is a percentage of the oral area under the curve to the IV area under the curve, dose adjusted.

HDAC3, sequence (O15379 whole entry): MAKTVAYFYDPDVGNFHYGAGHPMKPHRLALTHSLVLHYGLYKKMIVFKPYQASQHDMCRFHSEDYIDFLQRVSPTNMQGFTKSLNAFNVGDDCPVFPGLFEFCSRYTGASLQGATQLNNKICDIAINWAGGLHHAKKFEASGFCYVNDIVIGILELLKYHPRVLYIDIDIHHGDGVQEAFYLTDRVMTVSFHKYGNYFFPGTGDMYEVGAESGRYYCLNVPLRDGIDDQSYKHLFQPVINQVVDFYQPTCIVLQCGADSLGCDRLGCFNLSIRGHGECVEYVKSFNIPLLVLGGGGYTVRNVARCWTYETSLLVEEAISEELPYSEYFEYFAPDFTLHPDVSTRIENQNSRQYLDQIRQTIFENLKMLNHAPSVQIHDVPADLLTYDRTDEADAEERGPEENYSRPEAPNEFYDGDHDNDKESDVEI
HDAC3, sequence (Q9Y618 395-489 partner): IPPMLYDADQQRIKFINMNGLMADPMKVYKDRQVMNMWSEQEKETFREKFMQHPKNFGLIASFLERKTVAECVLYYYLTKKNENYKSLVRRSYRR

IC50 (HDAC3) [nM]	IC50 (HDAC1) [nM]	IC50 (HDAC2) [nM]	bioavailability [1] [%]	IV clearance [1] [mL/min/kg]	AUC [1] [ng·h/mL]	Cmax [1] [ng/mL]	half-life [1] [h]	Structure (SMILES)
10 to 500	< 10	10 to 500	–	–	–	–	–	Nc1ccc(-c2ccncc2)cc1NC(=O)c1ccc(N2CCNCC2)s1 [Compound 067]
> 500	> 500	> 500	–	–	–	–	–	Nc1ccc(-c2cc(F)cc(F)c2)cc1NC(=O)c1ccc(N2CCNCC2)cn1 [Compound 084]
10 to 500	< 10	10 to 500	–	–	–	–	–	Nc1ccc(-c2ccc(F)cc2)cc1NC(=O)c1cnc(N2CCNCC2)cn1 [Compound 090]
10 to 500	–	10 to 500	–	–	–	–	–	CN1CCN(c2ccc(C(=O)Nc3cc(-c4cccs4)ccc3N)cn2)CC1 [Compound 071]
10 to 500	< 10	10 to 500	–	–	–	–	–	Cc1nc(C(=O)Nc2cc(-c3ccco3)ccc2N)sc1N1CCNCC1 [Compound 042]
–	–	–	86.1	2	34600	3750	5.9	Nc1ccc(-c2ccccc2)cc1NC(=O)c1ccc2nc(N3CCNCC3)ccc2c1 [Compound 002]
10 to 500	10 to 500	10 to 500	–	–	–	–	–	Nc1ccc(-c2ccncc2)cc1NC(=O)c1cnc(N2CCNCC2)cn1 [Compound 089]
> 500	< 10	10 to 500	–	–	–	–	–	Cc1nc(C(=O)Nc2cc(-c3ccoc3)ccc2N)sc1N1CCNCC1 [Compound 043]
10 to 500	< 10	10 to 500	–	–	–	–	–	Nc1ccc(-c2ccccc2F)cc1NC(=O)c1ccc(N2CCNCC2)nc1 [Compound 076]
> 500	> 500	> 500	–	–	–	–	–	Nc1ccc(-c2cccs2)cc1NC(=O)c1cnc(N2CCNCC2)o1 [Compound 060]
10 to 500	10 to 500	10 to 500	–	–	–	–	–	Nc1ccc(-c2ccc(F)cc2)cc1NC(=O)c1nc(N2CCNCC2)cs1 [Compound 058]
10 to 500	< 10	10 to 500	–	–	–	–	–	CN1CCN(c2ccc(C(=O)Nc3cc(-c4ccoc4)ccc3N)cn2)CC1 [Compound 075]
10 to 500	< 10	10 to 500	–	–	–	–	–	Nc1ccc(-c2ccco2)cc1NC(=O)c1ccc(N2CCNCC2)s1 [Compound 065]
–	–	–	97	11	7100	727	4.9	Nc1ccc(-c2ccoc2)cc1NC(=O)c1ccc(N2CCNCC2)cc1 [Compound 014]
10 to 500	< 10	10 to 500	–	–	–	–	–	Nc1ccc(-c2ccoc2)cc1NC(=O)c1cnc(N2CCNCC2)cn1 [Compound 088]
–	–	–	93.9	8.83	8190	534	7.7	Nc1ccc(-c2cccs2)cc1NC(=O)c1ccc(N2CCNCC2)cc1 [Compound 012]
> 500	10 to 500	10 to 500	–	–	–	–	–	Nc1ccc(-c2ccccn2)cc1NC(=O)c1ccc(N2CCNCC2)cn1 [Compound 081]
10 to 500	10 to 500	10 to 500	–	–	–	–	–	Nc1ccc(-c2cccnc2)cc1NC(=O)c1cnc(N2CCNCC2)s1 [Compound 045]

IC50 (HDAC3) [nM]	IC50 (HDAC1) [nM]	IC50 (HDAC2) [nM]	bioavailability [1] [%]	IV clearance [1] [mL/min/kg]	AUC [1] [ng·h/mL]	Cmax [1] [ng/mL]	half-life [1] [h]	Structure (SMILES)
10 to 500	< 10	10 to 500	–	–	–	–	–	CN1CCN(c2cnc(C(=O)Nc3cc(-c4ccco4)ccc3N)s2)CC1 [Compound 054]
–	–	–	12.6	18.3	570	164	4.7	Nc1ccc(-c2ccncc2)cc1NC(=O)c1ccc(N2CCNCC2)nc1 [Compound 010]
10 to 500	< 10	< 10	–	–	–	–	–	Nc1ccc(-c2ccc(F)cc2)cc1NC(=O)c1ncc(N2CCNCC2)s1 [Compound 053]
> 500	> 500	> 500	–	–	–	–	–	Nc1ccc(-c2ccc(F)cc2)cc1NC(=O)c1cnc(N2CCNCC2)o1 [Compound 063]
–	–	–	100	14.3	5540	536	5.6	Nc1ccc(-c2ccco2)cc1NC(=O)c1ccc(N2CCNCC2)nc1 [Compound 008]
10 to 500	< 10	10 to 500	–	–	–	–	–	Nc1ccc(-c2ccco2)cc1NC(=O)c1cnc(N2CCNCC2)s1 [Compound 034]
10 to 500	< 10	10 to 500	–	–	–	–	–	CN1CCN(c2ccc(C(=O)Nc3cc(-c4ccccc4)ccc3N)cn2)CC1 [Compound 070]
10 to 500	< 10	< 10	–	–	–	–	–	CN1CCN(c2ccc(C(=O)Nc3cc(-c4cccs4)ccc3N)nc2)CC1 [Compound 080]
–	–	–	191	10.8	10700	614	13.7	Nc1ccc(-c2cccs2)cc1NC(=O)c1ccc(N2CCNCC2)s1 [Compound 033]
10 to 500	< 10	10 to 500	–	–	–	–	–	Nc1ccc(-c2ccccc2)cc1NC(=O)c1ccc(N2CCNCC2)s1 [Compound 064]
> 500	< 10	10 to 500	–	–	–	–	–	CN1CCN(c2ncc(C(=O)Nc3cc(-c4ccccc4)ccc3N)s2)CC1 [Compound 048]
> 500	< 10	10 to 500	–	–	–	–	–	Nc1ccc(-c2ccccc2)cc1NC(=O)c1cnc(N2CCNCC2)s1 [Compound 047]
–	–	–	90.8	0.667	91900	10400	4.3	Nc1ccc(-c2ccoc2)cc1NC(=O)c1ccc2nc(N3CCNCC3)ccc2c1 [Compound 004]
10 to 500	< 10	10 to 500	–	–	–	–	–	Nc1ccc(-c2ccoc2)cc1NC(=O)c1ccc(N2CCNCC2)s1 [Compound 066]
–	–	–	51.2	6	6370	664	8.5	Nc1ccc(-c2cccs2)cc1NC(=O)c1cnc2cc(N3CCNCC3)ccc2c1 [Compound 023]
–	–	–	36.3	3.5	8220	1000	4.4	Nc1ccc(-c2ccco2)cc1NC(=O)c1cnc2cc(N3CCNCC3)ccc2c1 [Compound 024]
–	–	–	105	13	5780	425	8.1	Nc1ccc(-c2ccco2)cc1NC(=O)c1ccc(N2CCNCC2)cc1 [Compound 013]

Structure (SMILES)	IC50 (HDAC3) [nM]	IC50 (HDAC1) [nM]	IC50 (HDAC2) [nM]	bioavailability [1] [%]	IV clearance [1] [mL/min/kg]	AUC [1] [ng·h/mL]	Cmax [1] [ng/mL]	half-life [1] [h]
Nc1ccc(-c2cccs2)cc1NC(=O)c1csc(N2CCNCC2)n1 [Compound 059]	10 to 500	> 500	10 to 500	–	–	–	–	–
CN1CCN(c2ccc(C(=O)Nc3cc(-c4ccccc4)ccc3N)nc2)CC1 [Compound 079]	10 to 500	< 10	10 to 500	–	–	–	–	–
Cc1nc(C(=O)Nc2cc(-c3cccs3)ccc2N)sc1N1CCNCC1 [Compound 041]	10 to 500	< 10	10 to 500	–	–	–	–	–
Nc1ccc(-c2ccccc2)cc1NC(=O)c1ncc(N2CCNCC2)s1 [Compound 049]	10 to 500	–	10 to 500	–	–	–	–	–
